The values below come from US12091708B2, “Compositions and methods targeting the Th2 pathway for the treatment of asthma” (THE CHILDREN'S HOSPITAL OF PHILADELPHIA, priority 2017, dated 2024).

This test concerns the target T1, CRTH2 receptor (Homo sapiens, UniProt Q9Y5Y4).
T1 construct: CD3+ cells were isolated from the rested PBMCs using Human T-Expander CD3/CD28 Dynabeads; endogenous in cells; host or cells: primary human CD3+/CD28+ T cells purified from PBMCs of healthy volunteers, expanded 10 days under TH2-skewing conditions
T1 sequence (Q9Y5Y4 1-395): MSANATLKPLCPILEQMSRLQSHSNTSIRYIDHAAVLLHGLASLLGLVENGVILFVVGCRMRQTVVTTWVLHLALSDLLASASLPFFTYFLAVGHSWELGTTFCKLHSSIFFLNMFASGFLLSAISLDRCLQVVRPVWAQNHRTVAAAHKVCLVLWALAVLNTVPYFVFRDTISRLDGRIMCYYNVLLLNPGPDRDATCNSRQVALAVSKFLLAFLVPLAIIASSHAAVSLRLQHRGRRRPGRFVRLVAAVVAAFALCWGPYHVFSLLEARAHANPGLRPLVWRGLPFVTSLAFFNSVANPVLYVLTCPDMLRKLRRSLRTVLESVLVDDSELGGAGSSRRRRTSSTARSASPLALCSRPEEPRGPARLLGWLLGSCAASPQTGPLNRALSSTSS
In words: CRTH2 assay: IL-13 expression (qPCR) in expanded, TH2-skewed T cells stimulated with PGD2 with or without CD3/CD28. The settings on record: T cells from healthy human volunteers, increasing concentrations of PGD2, with CD3/CD28 stimulation (FIG. 4). It is filed as cell-based. The procedure: As discussed above, CRTH2 is a key regulator of TH2 cytokine expression and action. We developed a CRTH2 assay to determine the effects of the SNP, rs2786098, on CRTH2 expression and action. The CRTH2 assay was developed using the following protocol. PBMCs were thawed and placed into 10 ml of RPMI+20% FBS in 15 ml conical tubes. Tubes were closed tightly, and placed on a rocker in the incubator overnight. Viable cell counts were obtained the following day. CD3+ cells were isolated from the rested PBMCs using Human T-Expander CD3/CD28 Dynabeads. These magnetic beads were used to purify CD3+/CD28+ T cells from the PBMC mixture, and then left in the cell culture to provide stimulation and co-stimulation to induce expansion of the T cells. Purified T cells were cultured with the beads in the presence of IL-2, IL-4, anti-IFNγ, and anti-IL-12. IL-2 provides a proliferative stimulus, while IL-4, anti-IFNγ, and anti-IL-12 provide TH2 skewing conditions. Cells were cultured, and culture volume was increased as required, for 10 days, at which point, they were stimulated at 500,000 cells per well with the indicated stimuli for 8 hours. Cell pellets were harvested and RNA was extracted. Gene expression was determined by qPCR. […]

With `CCCCC[C@H](O)/C=C/[C@H]1C(=O)C[C@H](O)[C@@H]1C/C=C\CCCC(=O)O` [PGD2, Prostaglandin D2], the “IL-13 production on stimulation” value is “additional IL-13 was produced”.
